Results as given in patent US20260335295A1, “PHARMACEUTICAL COMPOSITION COMPRISING HTRA ACTIVATOR AS ACTIVE INGREDIENT FOR PREVENTING OR TREATING DEGENERATIVE DISEASES, AND METHOD FOR SCREENING HTRA ACTIVITY MODULATOR” (THE ASAN FOUNDATION, priority 2023, published 2026).

Key:
[1] = system: ARPE-19 retinal pigment epithelial cells; assay: Microvilli formation in three-dimensional long-term culture macular degeneration cell model; type: cell-based; conditions: ARPE-19, 4.5 months culture; FIGS. 9G-I
From the text: (§1) In order to verify the preventive or therapeutic effect of compound E09 on age-related macular degeneration (AMD) under conditions similar to an in vivo environment, a macular degeneration cell model using a three-dimensional (3D) long-term culture system was established.
(§2) The model was designed to induce apical-basal polarization of ARPE-19 cells and to reproduce the structural and functional differentiation characteristics of retinal pigment epithelium (RPE), as well as pathological drusen accumulation patterns, through nicotinamide-based long-term culture.
(§3) Specifically, ARPE-19 retinal pigment epithelial cells were seeded at a density of 1.66× 10^5 cells/cm^2 and cultured for two weeks in a medium containing nicotinamide. Thereafter, the cells were re-seeded onto laminin-coated Transwell inserts.
(§4) Subsequently, the medium was replaced every 2-3 days with a medium containing E09 or an HtrA1 inhibitor, and the cells were differentiated for 4.5 months (untreated control group (ctrl), E09-treated group, and HtrA1 inhibitor-treated group).

[2] = system: gene sets (transcriptome); assay: Transcriptome analysis (GSEA) in a pathological model of macular degeneration (AMD); conditions: vs control group, FIG. 12 upper left
Experimental: The collected transcriptome data were analyzed at the gene set level using Gene Set Enrichment Analysis (GSEA).
FIG. 12 is a graph showing the results of GSEA (Gene Set Enrichment Analysis) performed after transcriptome analysis following treatment with Compound E09 or an HTRA1 inhibitor in a pathological model of macular degeneration (AMD).

[3] = system: ARPE-19 retinal pigment epithelial cells; assay: Cell barrier structure by ZO-1 and clusterin staining in three-dimensional long-term culture macular degeneration cell model; type: cell-based; conditions: ARPE-19, 4.5 months culture; FIGS. 9D-F
From the text: as §1, §2, §3, §4

[4] = system: ARPE-19 retinal pigment epithelial cells; assay: Immunostaining of ApoE and Cathepsin D in three-dimensional long-term culture macular degeneration cell model; type: cell-based; conditions: ARPE-19, 4.5 months culture; vs control group; FIGS. 9A-C
From the text: as §1, §2, §3, §4

HTRA1 [5] = molecular target: T1, HTRA1 (Homo sapiens, UniProt Q92743); assay: HTRA1 activity in HeLa cells with HTRA1 activity-based probe DS-1-94, fluorescence microscopy; type: cell-based; conditions: E09 10 μM, DS-1-94 5 μM, 37 °C, 1 hour, FIG. 4
Experimental: To confirm whether HTRA1 activity increases even when cells are treated with E09, HTRA1 activity according to the presence or absence of E09 was identified by treating Hela cells, which are human adenocarcinoma cells, with an HTRA1 activity-based probe (DS-1-94, final concentration of 5 μM) and E09 (HTRA activator, final concentration of 10 μM).
Specifically, the cells treated with the HIRAI activity-based probe (DS-1-94) and E09 (HTRA activator) were maintained in a 37 °C incubator for 1 hour.

[6] = system: NaIO3-induced mouse macular degeneration model (retina); assay: NaIO3-induced mouse macular degeneration model, H&E staining and thickness of retina; type: in vivo, C57BL/GJ mice; conditions: intravitreal injection on Day −1, NaIO3 IV day 0, eyes five days after NaIO3
Experimental: Specifically, C57BL/GJ mice (6 weeks old) were acclimated for one week, and on experimental day 0, NaIO3 was administered via intravenous injection (IV) to induce retinal injury. To evaluate drug efficacy, E09 or an HtrA1 inhibitor was pre-administered by intravitreal injection one day prior to NaIO3 administration (Day −1).
Five days after administration of NaIO3, the eyes were enucleated, and the tissues. were fixed and sectioned. Hematoxylin & Eosin (H&E) staining was then performed to observe morphological changes in the retina.
In particular, the structural preservation status and thickness changes of the retinal pigment epithelium (RPE) layer, photoreceptor outer segments (POS), and the outer nuclear layer (ONL) were primarily analyzed.

[7] = system: ARPE-19 retinal pigment epithelial cells; assay: Holotomography analysis in three-dimensional long-term culture macular degeneration cell model; type: cell-based; conditions: ARPE-19, 4.5 months culture; FIGS. 9J-L
From the text: as §1, §2, §3, §4

[8] = system: ARPE-19 retinal pigment epithelial cells; assay: Cell death by TUNEL assay in NaIO3-induced dry macular degeneration cell model; type: cell-based; conditions: pretreated 24 hours, co-treated with NaIO3 12 hours, FIG. 7E-H
Experimental: (§5) In order to confirm the preventive or therapeutic effect of compound E09 on age-related macular degeneration (AMD), a dry age-related macular degeneration (AMD)-like cell model induced by treatment with NaIO3 was established.
as §3
(§6) After culture for one month in a medium containing nicotinamide, the cells were treated with NaIO3 for 12 hours to induce cell injury (NaIO3-alone treatment group), wherein NaIO3 is commonly used for inducing dry age-related macular degeneration (AMD). Structural changes in the cells were then evaluated by analyzing clusterin and ZO-1. E09 and the HtrA1 inhibitor were dissolved in dimethyl sulfoxide (DMSO) and used for the experiments.
(§7) In order to evaluate the effect of E09 on NaIO3-induced cell injury, E09 was pretreated 24 hours prior to NaIO3 treatment and subsequently co-treated with NaIO3 for 12 hours (E09-treated group).
In addition, under the same conditions, NaIO3 and an HtrA1 inhibitor were administered, and a TUNEL assay was performed to evaluate cytotoxicity. […]

HTRA1 [9] = molecular target: T1, HTRA1; assay: HTRA1 activation in human blood samples; conditions: no method given
[10] = system: ARPE-19 retinal pigment epithelial cells; assay: Cobblestone structure by clusterin and ZO-1 staining in NaIO3-induced dry macular degeneration cell model; type: cell-based; conditions: pretreated 24 hours, co-treated with NaIO3 12 hours
Experimental: as §5, §3, §6, §7
In addition, under the same conditions, NaIO3 and an HtrA1 inhibitor were administered, and a TUNEL assay was performed to evaluate cytotoxicity.

HTRA1 [11] = molecular target: T1, HTRA1; assay: HTRA1 activity assay with fluorogenic substrate H2-Opt (high-throughput screening); type: biochemical
Experimental: (§8) HTRA activity was identified through high-throughput screening using H2-Opt, a commercially available fluorogenic substrate.
(§9) Specifically, purified recombinant HTRA1 protein (50 ng) and a compound (final concentration of 10 μM) were added to 80 μL of an assay buffer in each well of a 96-well plate and were allowed to stand at room temperature for 30 minutes. Immediately after 20 μL of an H2-OPT solution (final concentration of 6.25 μM) was added thereto and mixed, fluorescence signals generated therefrom were measured using an MS microplate reader device manufactured by Molecular Devices. Upon measurement of the fluorescence signals in kinetic mode, excitation and emission were set to 328 nm and 393 nm, respectively, and changes in the fluorescence signals were measured at 37 °C for 3 hours at intervals of 30 seconds.
(§10) Specifically, different concentrations of E09 (0.01, 0.1, 1, 10, and 100 (M) w ere added to purified recombinant HTRA1 and HTRA2, and activities of HTRA1 and HTRA2 were measured in the same manner as the high-throughput screening of Example 1. Fluorescence signals at the end of measurement (3 hours) were measured for each concentration. Graphs obtained by measuring the fluorescence signals of HTRA1 and HTRA2 are shown in FIGS. 2 and 3.

HTRA2 = molecular target: T2, HTRA2 (Homo sapiens, UniProt O43464); assay: HTRA2 activity assay with fluorogenic substrate H2-Opt; type: biochemical
T2 sequence (O43464 134-458): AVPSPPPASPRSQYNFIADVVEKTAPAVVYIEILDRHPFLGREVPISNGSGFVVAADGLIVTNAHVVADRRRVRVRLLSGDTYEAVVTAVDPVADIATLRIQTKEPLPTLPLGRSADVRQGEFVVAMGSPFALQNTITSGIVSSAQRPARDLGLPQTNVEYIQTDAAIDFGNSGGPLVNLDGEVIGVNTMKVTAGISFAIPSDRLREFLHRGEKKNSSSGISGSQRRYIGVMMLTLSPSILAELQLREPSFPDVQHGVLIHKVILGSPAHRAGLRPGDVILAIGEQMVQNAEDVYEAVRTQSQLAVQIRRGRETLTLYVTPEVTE
Experimental: as §8, §9, §10

HTRA1 [12] = molecular target: T1, HTRA1; assay: HTRA1 enzyme activity on addition of casein, PDZ-opt (GQYYFV) or E09; type: biochemical; conditions: 10 μM E09 vs 2 μg β-casein or PDZ-opt; 15 minutes at room temperature, measured at 37 °C 3 hours; FIG. 5
Experimental: HTRA activity was measured utilizing E09 and the HTRA activity-based probes synthesized by the method of Example 4.1. Changes in HTRA activity w ere measured for cases in which casein, known as a substrate of an HTRA enzyme, or PDZ-opt (GQYYFV), known as a peptide that activates an HTRA enzyme, was added and a case in which E09 was added.
Specifically, 2 μg of β-casein or PDZ-opt (GQYYFV) or 10 μM of E09 was added to an HTRA1 enzyme by the method of Example 1, the mixture was allowed to stand at room temperature for 15 minutes, and then HTRA1 activity was measured at 37 °C for 3 hours in the same manner as in Example 1, and the results are shown in FIG. 5.

T1 sequence (Q92743 23-480): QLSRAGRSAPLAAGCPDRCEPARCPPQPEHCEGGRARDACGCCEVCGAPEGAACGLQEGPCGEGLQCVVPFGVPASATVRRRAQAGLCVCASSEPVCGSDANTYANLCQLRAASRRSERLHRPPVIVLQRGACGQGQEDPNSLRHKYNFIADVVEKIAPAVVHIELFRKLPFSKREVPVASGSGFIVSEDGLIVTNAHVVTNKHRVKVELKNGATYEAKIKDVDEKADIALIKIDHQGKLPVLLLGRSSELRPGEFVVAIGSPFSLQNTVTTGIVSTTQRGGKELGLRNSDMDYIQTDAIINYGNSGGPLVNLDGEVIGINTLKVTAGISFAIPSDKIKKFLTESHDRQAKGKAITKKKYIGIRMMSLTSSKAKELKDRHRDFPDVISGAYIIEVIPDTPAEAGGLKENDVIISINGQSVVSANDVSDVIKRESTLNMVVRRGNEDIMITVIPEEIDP

COC(=O)C1CCC(NC(=O)c2ccc(-c3nc(C)cs3)cc2)(C(=O)OC)CC1 (centres unmarked) [Compound E09, dimethyl 1-(4-(4-methylthiazol-2-yl)benzamido)cyclohexane-1,4-dicarboxylate]
microvilli formation [1]: increased microvilli development | expression of gene sets associated with retinal vascular lesions (retinal telangiectasia and vascular tortuosity) [2]: overall tendency toward decreased expression | ZO-1 and clusterin staining pattern (epithelial barrier) [3]: maintained a continuous and regular staining pattern along the cell boundaries, indicating formation of a robust epithelial barrier structure | expression / accumulation of ApoE (drusen marker) [4]: expression levels of these markers tended to decrease compared with the control group | expression / accumulation of cathepsin D (drusen marker) [4]: expression levels of these markers tended to decrease compared with the control group | fluorescence signal of HTRA1 probe (HTRA1 activity) (HTRA1 [5]): fluorescence signal markedly increased | tissue continuity (H&E) ([6]; FIG. 11A): tissue continuity was well maintained | ONL thickness ([6]; FIG. 11B): significantly suppressed NaIO3-induced thinning and protected retinal structure | separation of the retinal (RPE-POS) layers (H&E) ([6]; vs DMSO control, FIG. 11A): separation of the retinal layers was markedly suppressed | cytoskeletal structure (holotomography) [7]: a stable cytoskeletal structure was maintained | NaIO3-induced cell death (TUNEL assay) [8]: NaIO3-induced cell death was significantly suppressed | HTRA1 activation in human blood samples (HTRA1 [9]): also activates HTRA1 in human blood samples | structural damage induced by NaIO3 / cobblestone structure ([10]; FIG. 7A-D): structural damage induced by NaIO3 was significantly suppressed | monolayer structure of the cells ([10]; FIG. 7C): the monolayer structure of the cells was preserved | dose dependency of HTRA1 activity (HTRA1 [11]; 0.01, 0.1, 1, 10, and 100 (M) as printed, signal at 3 hours, FIG. 2): activates HTRA1 and HTRA2 in a dose-dependent manner | activation ability in HTRA1 (both HTRA1 and HTRA2) (HTRA1 [11]; Example 1, in words): excellent activation ability in both HTRA1 and HTRA2 | HTRA1 activation (HTRA1 [11]; screening, final concentration of 10 μM, H2-OPT 6.25 μM, 37 °C, 3 hours, FIG. 1): significantly activate HTRA1 | dose dependency of HTRA2 activity (HTRA2; 0.01, 0.1, 1, 10, and 100 (M) as printed, signal at 3 hours, FIG. 3): activates HTRA1 and HTRA2 in a dose-dependent manner | activation ability in HTRA2 (both HTRA1 and HTRA2) (HTRA2; Example 1, in words): excellent activation ability in both HTRA1 and HTRA2 | HTRA1 activation compared with casein or PDZ-opt (GQYYFV) (HTRA1 [12]): activates the HTRA1 enzyme at room temperature far more significantly than casein or PDZ-opt (GQYYFV)
